Results taken from patent US20140274981A1, “PHARMACEUTICAL COMPOSITION OF S-KETAMINE HYDROCHLORIDE” (JANSSEN PHARMACEUTICA NV, priority 2013, published 2014).

Key:
A. brasiliensis = assay: Full AET challenge test; details: original spike 10^5-10^6 CFU/ml, 28 days at room temperature
C. albicans = assay: Full AET challenge test; details: original spike 10^5-10^6 CFU/ml, after 28 days
P. aeruginosa = assay: Full AET challenge test; details: original spike 10^5-10^6 CFU/ml, after 28 days
S. aureus = assay: Full AET challenge test; details: original spike 10^5-10^6 CFU/ml, after 28 days
E. coli = assay: Full AET challenge test; details: original spike 10^5-10^6 CFU/ml, after 28 days
M. luteus = assay: Full AET challenge test; details: original spike 10^5-10^6 CFU/ml, after 28 days
S. haemolyticus = assay: Microbial challenge test (Example 1); details: original spike 10^5-10^6 CFU/ml

SMILES: CN[C@]1(c2ccccc2Cl)CCCCC1=O.Cl [S-ketamine hydrochloride, (S)-2-(2-chlorophenyl)-2-(methylamino)cyclohexanone hydrochloride]
- Effect on the original spike (in words) (A. brasiliensis): some inhibitory activity
- Effect on the original spike (in words) (C. albicans): strong antimicrobial properties
- Effect on the original spike (in words) (P. aeruginosa): strong antimicrobial properties
- Effect on the original spike (in words) (S. aureus): strong antimicrobial properties
- Effect on the original spike (in words) (E. coli): strong antimicrobial properties
- Effect on the original spike (in words) (M. luteus): strong antimicrobial properties
- Effect on the original spike (in words) (S. haemolyticus): strong antimicrobial properties
